Tested on: pulmonary adenocarcinoma
Test: clinical course under other anticancer drugs in the lung cancer cases
Type: in vivo, human
Excerpt: Each case is disclosed in detail below.

COc1cc2ncnc(Nc3ccc(F)c(Cl)c3)c2cc1OCCCN1CCOCC1 [Iressa, gefitinib]
side effects (case 2, oral dosing from September to May 2014, no ketogenic diet): not found

C#Cc1cccc(Nc2ncnc3cc(OCCOC)c(OCCOC)cc23)c1 [erlotinib]
adverse event due to erlotinib (case 4, August 2014, on the head): eczema | primary tumor (primary lesion) under erlotinib administration (one patient who left the ketogenic diet after the 3 month evaluation): contraction

Source: patent US20180214410A1, “Development of Dietary Therapy in Cancer” (Osaka University, priority 2015, published 2018)
